Results published in the supplement of paper PMC10307832.

What was measured:
Assay in all cases: relative viability (nuclei count vs DMSO), 5 days (fraction); higher = more cells survive
Adavosertib + Bortezomib = compound: C=CCn1c(=O)c2cnc(Nc3ccc(N4CCN(C)CC4)cc3)nc2n1-c1cccc(C(C)(C)O)n1 [Adavosertib] + CC(C)C[C@H](NC(=O)[C@H](Cc1ccccc1)NC(=O)c1cnccn1)B(O)O [Bortezomib] (partner 0.002 µM)
Summary of the method: (§1)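 One day after seeding in 1536-well plates, lung cancer cell lines were dosed by pin tool. Dosing was either single-drug or a fixed anchor-drug dose plus five library-drug doses (not always all listed) in √10 steps. After 5 days, nuclei were stained in one fix-and-stain step and counted on 4× images, and relative viability is the nuclei count of treated wells over that of vehicle wells, given as the median of duplicate plates.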

Adavosertib + Lapatinib = compound: C=CCn1c(=O)c2cnc(Nc3ccc(N4CCN(C)CC4)cc3)nc2n1-c1cccc(C(C)(C)O)n1 [Adavosertib] + CS(=O)(=O)CCNCc1ccc(-c2ccc3ncnc(Nc4ccc(OCc5cccc(F)c5)c(Cl)c4)c3c2)o1 [Lapatinib] (partner 2 µM)
Summary of the method: as §1

Adavosertib + Linsitinib = compound: C=CCn1c(=O)c2cnc(Nc3ccc(N4CCN(C)CC4)cc3)nc2n1-c1cccc(C(C)(C)O)n1 [Adavosertib] + C[C@]1(O)C[C@@H](c2nc(-c3ccc4ccc(-c5ccccc5)nc4c3)c3c(N)nccn32)C1 [Linsitinib] (partner 1 µM)
Summary of the method: as §1

Adavosertib + Tozasertib = compound: C=CCn1c(=O)c2cnc(Nc3ccc(N4CCN(C)CC4)cc3)nc2n1-c1cccc(C(C)(C)O)n1 [Adavosertib] + Cc1cc(Nc2cc(N3CCN(C)CC3)nc(Sc3ccc(NC(=O)C4CC4)cc3)n2)n[nH]1 [Tozasertib] (partner 0.1 µM)
Summary of the method: as §1

Adavosertib + Olaparib = compound: C=CCn1c(=O)c2cnc(Nc3ccc(N4CCN(C)CC4)cc3)nc2n1-c1cccc(C(C)(C)O)n1 [Adavosertib] + O=C(c1cc(Cc2n[nH]c(=O)c3ccccc23)ccc1F)N1CCN(C(=O)C2CC2)CC1 [Olaparib] (partner 8 µM)
Summary of the method: as §1

Cell Line	relative viability (Adavosertib + Bortezomib; first compound 0.01 µM)	relative viability (Adavosertib + Bortezomib; first compound 0.03162 µM)	relative viability (Adavosertib + Bortezomib; first compound 0.1 µM)	relative viability (Adavosertib + Bortezomib; first compound 0.3162 µM)	relative viability (Adavosertib + Lapatinib; first compound 0.01 µM)	relative viability (Adavosertib + Lapatinib; first compound 0.03162 µM)	relative viability (Adavosertib + Lapatinib; first compound 0.1 µM)	relative viability (Adavosertib + Lapatinib; first compound 0.3162 µM)	relative viability (Adavosertib + Linsitinib; first compound 0.01 µM)	relative viability (Adavosertib + Linsitinib; first compound 0.03162 µM)	relative viability (Adavosertib + Linsitinib; first compound 0.1 µM)	relative viability (Adavosertib + Linsitinib; first compound 0.3162 µM)	relative viability (Adavosertib + Tozasertib; first compound 0.01 µM)	relative viability (Adavosertib + Tozasertib; first compound 0.03162 µM)	relative viability (Adavosertib + Tozasertib; first compound 0.1 µM)	relative viability (Adavosertib + Tozasertib; first compound 0.3162 µM)	relative viability (Adavosertib + Olaparib; first compound 0.01 µM)	relative viability (Adavosertib + Olaparib; first compound 0.03162 µM)	relative viability (Adavosertib + Olaparib; first compound 0.1 µM)	relative viability (Adavosertib + Olaparib; first compound 0.3162 µM)
201T	1.06	1.06	1.16	1.14	1.02	1.01	1.02	1.09	1.04	0.957	0.941	1.08	0.91	0.999	1.01	0.979	0.887	0.882	0.868	0.818
LXF-289	0.959	0.948	0.999	0.999	0.905	0.894	0.906	0.922	0.936	0.97	0.944	1.02	0.174	0.192	0.205	0.261	1.1	1.06	1.13	1.02
NCI-H23	0.97	1.05	0.844	0.327	0.935	1.25	0.855	0.328	0.53	0.612	0.444	0.29	0.326	0.321	0.283	0.192	0.339	0.317	0.24	0.138
NCI-H1975	0.356	0.353	0.399	0.324	0.878	0.805	0.895	0.667	1	0.951	0.891	0.522	0.842	0.794	0.835	0.525	0.873	0.803	0.737	0.63
NCI-H3122	1.12	0.992	1.11	1.09	1.01	0.924	1.07	1.07	1.08	0.954	1.06	1.06	0.414	0.383	0.462	0.469	0.662	0.611	0.549	0.575
NCI-H838	0.993	0.946	0.754	0.824	0.975	0.921	0.976	1.07	1.01	1.05	1	1.09	0.237	0.268	0.328	0.283	0.784	0.805	0.804	0.613
H3255	0.539	0.885	0.699	0.845	0.25	0.251	0.219	0.203	0.967	1.01	0.993	0.957	0.63	0.721	0.421	0.559	0.604	0.522	0.667	0.583
